# Target: T1, P2X7 receptor (UniProt Q99572)
# T1 sequence (Q99572 1-595): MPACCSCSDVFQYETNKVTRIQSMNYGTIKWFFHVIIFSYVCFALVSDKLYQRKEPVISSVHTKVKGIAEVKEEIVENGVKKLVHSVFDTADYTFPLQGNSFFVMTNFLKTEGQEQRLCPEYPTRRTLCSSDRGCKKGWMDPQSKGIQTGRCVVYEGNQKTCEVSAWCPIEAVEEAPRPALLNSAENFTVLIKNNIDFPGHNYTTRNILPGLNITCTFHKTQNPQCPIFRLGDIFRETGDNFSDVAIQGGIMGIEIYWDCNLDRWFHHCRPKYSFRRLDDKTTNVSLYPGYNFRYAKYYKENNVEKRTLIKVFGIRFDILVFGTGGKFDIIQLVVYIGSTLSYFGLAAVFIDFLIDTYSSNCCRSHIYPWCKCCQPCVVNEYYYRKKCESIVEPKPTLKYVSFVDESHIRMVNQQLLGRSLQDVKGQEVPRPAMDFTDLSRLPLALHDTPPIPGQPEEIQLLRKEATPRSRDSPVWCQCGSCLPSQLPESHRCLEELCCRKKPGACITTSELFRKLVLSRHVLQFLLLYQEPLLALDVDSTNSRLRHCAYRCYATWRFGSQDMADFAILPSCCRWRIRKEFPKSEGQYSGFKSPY
# Experiment: pKi of Table 1 (assay not stated)
# Assay type: cell-based
# Description: Intracellular Calcium Flux (FLIPR) Assay
# Stock solutions of compounds were prepared from powders as a 10 mM DMSO stock solution. These solutions were stored at RT during the two week period of these experiments to prevent freeze-thaw of the DMSO stocks. The DMSO stocks were added to the appropriate assay buffer at a concentration of 10 μM, and then diluted serially to the final concentrations that were tested. […] The aqueous solutions of compounds as well as ATP (Sigma A7699) and BzATP (Sigma B6396) were prepared fresh for each day of experiment.
# 1321N1 cells stably expressing the full length human P2X7 gene (1321N1-hP2X7) and HEK293 cells stably expressing the full length rat P2X7 gene (HEK293-rP2X7) were obtained from the Roche Cell Culture Facility. 1321N1-hP2X7 cells were grown in Dulbecco's Modified Eagle's Medium (DMEM) high glucose supplemented with 10% FBS and 250 μg/mL G418. HEK293-rP2X7 cells were grown in DMEM/F-12 supplemented with 10% FBS, 1 mM CaCl2, 2 mM MgCl2, 2 mM L-Glutamine and 500 μg/ml G418. Cells were split such that they never became>70% confluent.
# On the day prior to the experiment, 1321N1-hP2X7 or HEK293-rP2X7 cells were released into suspension with calcium-free PBS+Versene and washed by centrifugation with calcium-free PBS to remove the Versene. Cells were resuspended in growth medium at a density of 2.5×10^5 cells/mL and seeded into black walled, clear bottom 96 well plates (50,000 cells/well) approximately 18 hr prior to intracellular calcium flux experiments.
# On the day of the experiment, plates were washed with FLIPR buffer (calcium- and magnesium-free Hank's Balanced Salt Solution (HBSS) supplemented with 10 mM Hepes, 2.5 mM probenecid and 2 mM calcium chloride) using a BIO-TEK 96 channel plate washer and incubated with […] fluo-3 dye at 37° C. for one hr. The dye was then removed by plate washing and the cells were allowed to equilibrate for 20 min at room temperature with antagonist or vehicle (FLIPR buffer). Agonist (100 μM BzATP final concentration for hP2X7; 5 μM BzATP final concentration or rP2X7) was added online with the FLIPR and fluorescence measurements made at 1 sec intervals for 60 sec followed by 3 sec intervals for a further 4 min (5 min total). A final addition of 5 μM ionomycin was made and the maximal BzATP-evoked fluorescence normalized to the maximal ionomycin-evoked fluorescence.
row,SMILES,pKi
1,"CCc1cc2ccn(CCO)c2cc1NC(=O)C1=CNC(=O)C[C@H]1c1ccc(F)cc1 [Compound 16, (S)-4-(4-Fluoro-phenyl)-6-oxo-1,4,5,6-tetrahydro-pyridine-3-carboxylic acid [5-ethyl-1-(2-hydroxy-ethyl)-1H-indol-6-yl]-amide]",7.575
2,"Cc1c(NC(=O)C2=CNC(=O)C[C@H]2c2ccc(F)cc2)ccc2ncccc12 [Compound 17, (S)-4-(4-Fluoro-phenyl)-6-oxo-1,4,5,6-tetrahydro-pyridine-3-carboxylic acid (5-methyl-quinolin-6-yl)-amide]",6.805
3,"Cc1cc2c(cc1NC(=O)C1=CNC(=O)C[C@H]1c1ccc(F)cc1)N(C)C(=O)CC2 [Compound 18, (S)-4-(4-Fluoro-phenyl)-6-oxo-1,4,5,6-tetrahydro-pyridine-3-carboxylic acid (1,6-dimethyl-2-oxo-1,2,3,4-tetrahydro-quinolin-7-yl)-amide]",7.16
4,"O=C1C[C@@H](c2ccc(F)cc2)C(C(=O)Nc2cc3c(cc2Br)CCC(=O)N3CCO)=CN1 [Compound 19, (S)-4-(4-Fluoro-phenyl)-6-oxo-1,4,5,6-tetrahydro-pyridine-3-carboxylic acid [6-bromo-1-(2-hydroxy-ethyl)-2-oxo-1,2,3,4-tetrahydro-quinolin-7-yl]-amide]",5.535
5,"Cc1cc2ncccc2cc1NC(=O)C1=CNC(=O)C[C@H]1c1cccc(F)c1 [Compound 20, (S)-4-(3-Fluoro-phenyl)-6-oxo-1,4,5,6-tetrahydro-pyridine-3-carboxylic acid (7-methyl-quinolin-6-yl)-amide]",6.825
6,"O=C1C[C@@H](c2cccc(F)c2)C(C(=O)Nc2cc3c(cc2Br)OCC(=O)N3)=CN1 [Compound 21, (S)-4-(3-Fluoro-phenyl)-6-oxo-1,4,5,6-tetrahydro-pyridine-3-carboxylic acid (7-bromo-3-oxo-3,4-dihydro-2H-benzo[1,4]oxazin-6-yl)-amide]",5.925
7,"CN1C(=O)COc2cc(Br)c(NC(=O)C3=CNC(=O)C[C@H]3c3cccc(F)c3)cc21 [Compound 22, (S)-4-(3-Fluoro-phenyl)-6-oxo-1,4,5,6-tetrahydro-pyridine-3-carboxylic acid (7-bromo-4-methyl-3-oxo-3,4-dihydro-2H-benzo[1,4]oxazin-6-yl)-amide]",6.905
8,"Cc1cc2c(cc1NC(=O)C1=CNC(=O)C[C@H]1c1ccc(F)cc1)N(C)C(=O)CO2 [Compound 23, (S)-4-(4-Fluoro-phenyl)-6-oxo-1,4,5,6-tetrahydro-pyridine-3-carboxylic acid (4,7-dimethyl-3-oxo-3,4-dihydro-2H-benzo[1,4]oxazin-6-yl)-amide]",6.73
9,"Cc1cc2c(cc1NC(=O)C1=CNC(=O)C[C@H]1c1cccc(F)c1)N(C)C(=O)CO2 [Compound 24, (S)-4-(3-Fluoro-phenyl)-6-oxo-1,4,5,6-tetrahydro-pyridine-3-carboxylic acid (4,7-dimethyl-3-oxo-3,4-dihydro-2H-benzo[1,4]oxazin-6-yl)-amide]",7.015
10,"CCc1cc2c(cc1NC(=O)C1=CNC(=O)C[C@H]1c1ccc(F)cc1)N(C)C(=O)CO2 [Compound 25, (S)-4-(4-Fluoro-phenyl)-6-oxo-1,4,5,6-tetrahydro-pyridine-3-carboxylic acid (7-ethyl-4-methyl-3-oxo-3,4-dihydro-2H-benzo[1,4]oxazin-6-yl)-amide]",6.88
11,"CCc1cc2c(cc1NC(=O)C1=CNC(=O)C[C@H]1c1cccc(F)c1)N(C)C(=O)CO2 [Compound 26, (S)-4-(3-Fluoro-phenyl)-6-oxo-1,4,5,6-tetrahydro-pyridine-3-carboxylic acid (7-ethyl-4-methyl-3-oxo-3,4-dihydro-2H-benzo[1,4]oxazin-6-yl)-amide]",7.125
12,"Cc1ccc2ncccc2c1NC(=O)C1=CNC(=O)C[C@H]1c1ccc(F)cc1 [Compound 27, (S)-4-(4-Fluoro-phenyl)-6-oxo-1,4,5,6-tetrahydro-pyridine-3-carboxylic acid (6-methyl-quinolin-5-yl)-amide]",7.64
13,"Cc1cc2cnn(CCO)c2cc1NC(=O)C1=CNC(=O)C[C@H]1c1ccc(F)cc1 [Compound 28, (S)-4-(4-Fluoro-phenyl)-6-oxo-1,4,5,6-tetrahydro-pyridine-3-carboxylic acid [1-(2-hydroxy-ethyl)-5-methyl-1H-indazol-6-yl]-amide]",7.645
14,"Cc1cc2cc(C)n(CCO)c2cc1NC(=O)C1=CNC(=O)C[C@H]1c1ccc(F)cc1 [Compound 29, (S)-4-(4-Fluoro-phenyl)-6-oxo-1,4,5,6-tetrahydro-pyridine-3-carboxylic acid [1-(2-hydroxy-ethyl)-2,5-dimethyl-1H-indol-6-yl]-amide]",6.285
15,"Cc1cc2c(C)cn(CCO)c2cc1NC(=O)C1=CNC(=O)C[C@H]1c1ccc(F)cc1 [Compound 30, (S)-4-(4-Fluoro-phenyl)-6-oxo-1,4,5,6-tetrahydro-pyridine-3-carboxylic acid [1-(2-hydroxy-ethyl)-3,5-dimethyl-1H-indol-6-yl]-amide]",6.89
16,"CCc1cc2c(cc1NC(=O)C1=CNC(=O)C[C@H]1c1ccc(F)cc1)N(C)C(=O)CC2 [Compound 31, (S)-4-(4-Fluoro-phenyl)-6-oxo-1,4,5,6-tetrahydro-pyridine-3-carboxylic acid (6-ethyl-1-methyl-2-oxo-1,2,3,4-tetrahydro-quinolin-7-yl)-amide]",6.805
17,"CC1=C(C(=O)Nc2ccc3[nH]ncc3c2)C(c2ccc(F)cc2)CC(=O)N1 (stereo not shown) [Compound 32, 4-(4-Fluoro-phenyl)-2-methyl-6-oxo-1,4,5,6-tetrahydro-pyridine-3-carboxylic acid (1H-indazol-5-yl)-amide]",5.14
18,"Cc1cc2c(cc1NC(=O)C1=CNC(=O)C[C@H]1c1ccc(F)cc1)N(CCO)C(=O)CC2 [Compound 33, (S)-4-(4-Fluoro-phenyl)-6-oxo-1,4,5,6-tetrahydro-pyridine-3-carboxylic acid [1-(2-hydroxy-ethyl)-6-methyl-2-oxo-1,2,3,4-tetrahydro-quinolin-7-yl]-amide]",6.285
19,"O=C1C[C@@H](c2ccc(F)cc2)C(C(=O)Nc2cc3c(cc2Br)N(CCO)C(=O)CC3)=CN1 [Compound 34, (S)-4-(4-Fluoro-phenyl)-6-oxo-1,4,5,6-tetrahydro-pyridine-3-carboxylic acid [7-bromo-1-(2-hydroxy-ethyl)-2-oxo-1,2,3,4-tetrahydro-quinolin-6-yl]-amide]",6.785
20,"CCc1c(NC(=O)C2=CNC(=O)C[C@H]2c2ccc(F)cc2)ccc2nc(C)ccc12 [Compound 35, (S)-4-(4-Fluoro-phenyl)-6-oxo-1,4,5,6-tetrahydro-pyridine-3-carboxylic acid (5-ethyl-2-methyl-quinolin-6-yl)-amide]",7.18
21,"Cc1cc2c(cc1NC(=O)C1=CNC(=O)C[C@H]1c1ccc(F)cc1)NC(=O)CO2 [Compound 36, (S)-4-(4-Fluoro-phenyl)-6-oxo-1,4,5,6-tetrahydro-pyridine-3-carboxylic acid (7-methyl-3-oxo-3,4-dihydro-2H-benzo[1,4]oxazin-6-yl)-amide]",5.56
22,"O=C1C[C@@H](c2ccc(F)cc2)C(C(=O)Nc2cc3c(cc2Br)OCC(=O)N3CCO)=CN1 [Compound 38, (S)-4-(4-Fluoro-phenyl)-6-oxo-1,4,5,6-tetrahydro-pyridine-3-carboxylic acid [7-bromo-4-(2-hydroxy-ethyl)-3-oxo-3,4-dihydro-2H-benzo[1,4]oxazin-6-yl]-amide]",5.25
